According to PubChem BioAssay AID248 (DTP/NCI, 2004):
Values joined by “and” are separate entries in the source; they are usually repeats but may differ in a detail not shown here. Equal values may be shown once. Toxic doses and inconclusive results are not listed. Square brackets hold non-standard residues; d marks the D form. Peptide text beside a SMILES is read from it. * marks the point of attachment. ξ: configuration not given here. Cbz = O=C(OCc1ccccc1)*; ξP = O=C(O)C1CCCN1

System: L1210 leukemia ip in BDF1 mice, survival T/C
Experiment: NCI In Vivo Anticancer Drug Screen. Data for tumor model L1210 Leukemia (intraperitoneal) in B6D2F1 (BDF1) mice
Conditions: endpoint: mean survival time, higher = longer survival
Summary of the method: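 Survival endpoint. Drug-treated group vs vehicle group, expressed as T divided by C. Tumor passaged by transplantation.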

[1] = dose: 100.0 mg/kg/injection, schedule: Q01DX009 (ip), vehicle: Klucel (hydroxypropylcellulose) (HPC)
[2] = dose: 200.0 mg/kg/injection, schedule: Q01DX009 (ip), vehicle: Klucel (hydroxypropylcellulose) (HPC)
[3] = dose: 100.0 mg/kg/injection, schedule: Q04DX003 (ip), vehicle: saline with Tween-80
[4] = dose: 200.0 mg/kg/injection, schedule: Q04DX003 (ip), vehicle: saline with Tween-80
[5] = dose: 400.0 mg/kg/injection, schedule: Q04DX003 (ip), vehicle: saline with Tween-80

O=C(Nc1ccc(C2=NCCN2)cc1)c1cc(C(=O)Nc2ccc(C3=NCCN3)cc2)ncn1
T/C (dose: 0.47 mg/kg/injection, schedule: Q01DX015 (ip), vehicle: methylcellulose (MC)): 96 % of control | T/C (dose: 0.93 mg/kg/injection, schedule: Q01DX015 (ip), vehicle: methylcellulose (MC)): 108 % of control | T/C (dose: 0.93 mg/kg/injection, schedule: Q01DX Z (ip), vehicle: carboxymethylcellulose (CMC)): 94 % of control | T/C (dose: 1.87 mg/kg/injection, schedule: Q01DX015 (ip), vehicle: methylcellulose (MC)): 100 % of control and 101 % of control | T/C (dose: 1.87 mg/kg/injection, schedule: Q01DX Z (ip), vehicle: carboxymethylcellulose (CMC)): 120 % of control | T/C (dose: 3.75 mg/kg/injection, schedule: Q01DX015 (ip), vehicle: methylcellulose (MC)): 102 % of control and 116 % of control | T/C (dose: 6.25 mg/kg/injection, schedule: Q01DX001 (ip), vehicle: methylcellulose (MC)): 112 % of control | T/C (dose: 7.5 mg/kg/injection, schedule: Q01DX015 (ip), vehicle: methylcellulose (MC)): 116 % of control and 118 % of control | T/C (dose: 12.5 mg/kg/injection, schedule: Q01DX001 (ip), vehicle: methylcellulose (MC)): 108 % of control | T/C (dose: 15.0 mg/kg/injection, schedule: Q01DX015 (ip), vehicle: other): 153 % of control | T/C (dose: 15.0 mg/kg/injection, schedule: Q01DX Z (ip), vehicle: carboxymethylcellulose (CMC)): 303 % of control | T/C (dose: 25.0 mg/kg/injection, schedule: Q01DX001 (ip), vehicle: methylcellulose (MC)): 104 % of control | T/C (dose: 30.0 mg/kg/injection, schedule: Q01DX015 (ip), vehicle: methylcellulose (MC)): 93 % of control | T/C (dose: 30.0 mg/kg/injection, schedule: Q01DX015 (ip), vehicle: other): 241 % of control | T/C (dose: 30.0 mg/kg/injection, schedule: Q01DX Z (ip), vehicle: carboxymethylcellulose (CMC)): 224 % of control | T/C (dose: 36.0 mg/kg/injection, schedule: Q01DX001 (ip), vehicle: carboxymethylcellulose (CMC)): 118 % of control | T/C (dose: 36.0 mg/kg/injection, schedule: Q01DX001 (ip), vehicle: other): 112 % of control | T/C (dose: 50.0 mg/kg/injection, schedule: Q01DX001 (ip), vehicle: methylcellulose (MC)): 122 % of control | T/C (dose: 53.0 mg/kg/injection, schedule: Q01DX001 (ip), vehicle: carboxymethylcellulose (CMC)): 118 % of control | T/C (dose: 53.0 mg/kg/injection, schedule: Q01DX001 (ip), vehicle: other): 121 % of control | T/C (dose: 60.0 mg/kg/injection, schedule: Q01DX015 (ip), vehicle: other): 102 % of control | T/C (dose: 60.0 mg/kg/injection, schedule: Q01DX Z (ip), vehicle: carboxymethylcellulose (CMC)): 154 % of control | T/C (dose: 79.0 mg/kg/injection, schedule: Q01DX001 (ip), vehicle: carboxymethylcellulose (CMC)): 124 % of control | T/C (dose: 120.0 mg/kg/injection, schedule: Q01DX Z (ip), vehicle: carboxymethylcellulose (CMC)): 121 % of control | T/C (dose: 180.0 mg/kg/injection, schedule: Q01DX001 (ip), vehicle: carboxymethylcellulose (CMC)): 157 % of control | T/C (dose: 180.0 mg/kg/injection, schedule: Q01DX001 (ip), vehicle: other): 162 % of control | T/C (dose: 270.0 mg/kg/injection, schedule: Q01DX001 (ip), vehicle: carboxymethylcellulose (CMC)): 169 % of control | T/C (dose: 405.0 mg/kg/injection, schedule: Q01DX001 (ip), vehicle: carboxymethylcellulose (CMC)): 193 % of control

O=C(NCC(=O)N1CCCC1C(=O)O)OCc1ccccc1 (stereo not drawn) (Cbz-Gly-[ξP]-OH)
T/C (dose: 50.0 mg/kg/injection, schedule: Q01DX009 (ip), vehicle: Klucel (hydroxypropylcellulose) (HPC)): 93 % of control | T/C (dose: 50.0 mg/kg/injection, schedule: Q04DX003 (ip), vehicle: Klucel (hydroxypropylcellulose) (HPC)): 96 % of control | T/C [1]: 97 % of control | T/C (dose: 100.0 mg/kg/injection, schedule: Q04DX003 (ip), vehicle: Klucel (hydroxypropylcellulose) (HPC)): 91 % of control | T/C [2]: 93 % of control | T/C (dose: 200.0 mg/kg/injection, schedule: Q04DX003 (ip), vehicle: Klucel (hydroxypropylcellulose) (HPC)): 93 % of control

O=C1CC2=CC3C=CC(N1)C2c1ccccc13 (stereo not given)
T/C [3]: 101 % of control | T/C [4]: 93 % of control | T/C [5]: 93 % of control

CCc1cc(C(=O)NC(CCC(=O)O)C(=O)O)ccc1NCc1cnc2nc(N)[nH]c(=O)c2n1 (stereo not given)
T/C (dose: 50.0 mg/kg/injection, schedule: Q01DX001 (ip), vehicle: saline with Tween-80): 106 % of control | T/C (dose: 100.0 mg/kg/injection, schedule: Q01DX001 (ip), vehicle: saline with Tween-80): 100 % of control | T/C (dose: 200.0 mg/kg/injection, schedule: Q01DX001 (ip), vehicle: saline with Tween-80): 100 % of control

N#C/C(=C\c1ccncc1)c1csc2ccccc12
T/C [3]: 101 % of control | T/C [4]: 100 % of control | T/C [5]: 94 % of control

O=C(O)C1(C(=O)O)CCC1c1ccccc1 (stereo not given)
T/C (dose: 100.0 mg/kg/injection, schedule: Q01DX001 (ip), vehicle: saline): 94 % of control | T/C (dose: 200.0 mg/kg/injection, schedule: Q01DX001 (ip), vehicle: saline): 113 % of control | T/C (dose: 400.0 mg/kg/injection, schedule: Q01DX001 (ip), vehicle: saline): 102 % of control

c1ccc2c(c1)Nc1ccccc1[As]2C1CCCCC1
T/C (dose: 12.5 mg/kg/injection, schedule: Q04DX002 (ip), vehicle: saline with Tween-80): 99 % of control | T/C (dose: 25.0 mg/kg/injection, schedule: Q04DX002 (ip), vehicle: saline with Tween-80): 99 % of control | T/C (dose: 50.0 mg/kg/injection, schedule: Q04DX002 (ip), vehicle: saline with Tween-80): 101 % of control

OCC1OC(n2cnc3c(SCc4ccccc4)nc(NO)nc32)C(O)C1O (stereo not given)
T/C (dose: 267.0 mg/kg/injection, schedule: Q01DX001 (ip), vehicle: saline with Tween-80): 150 % of control

CC(=O)c1cccc(NC(=O)N(C)Cc2ccccc2)c1
T/C [1]: 109 % of control | T/C [2]: 100 % of control | T/C (dose: 400.0 mg/kg/injection, schedule: Q01DX009 (ip), vehicle: Klucel (hydroxypropylcellulose) (HPC)): 112 % of control

CC(CO)(CO)NC(=O)c1ccc([N+](=O)[O-])cc1
T/C (dose: 100.0 mg/kg/injection, schedule: Q01DX001 (ip), vehicle: carboxymethylcellulose (CMC)): 94 % of control | T/C (dose: 200.0 mg/kg/injection, schedule: Q01DX001 (ip), vehicle: carboxymethylcellulose (CMC)): 100 % of control | T/C (dose: 400.0 mg/kg/injection, schedule: Q01DX001 (ip), vehicle: carboxymethylcellulose (CMC)): 94 % of control

Cc1[nH]c(=O)[nH]c(=O)c1N(CCF)CCCl
T/C (dose: 5.0 mg/kg/injection, schedule: Q01DX009 (ip), vehicle: Klucel (hydroxypropylcellulose) (HPC)): 104 % of control and 107 % of control | T/C (dose: 5.0 mg/kg/injection, schedule: Q01DX009 (ip), vehicle: saline): 106 % of control | T/C (dose: 9.0 mg/kg/injection, schedule: Q01DX009 (ip), vehicle: Klucel (hydroxypropylcellulose) (HPC)): 108 % of control | T/C (dose: 10.0 mg/kg/injection, schedule: Q01DX009 (ip), vehicle: Klucel (hydroxypropylcellulose) (HPC)): 112 % of control | T/C (dose: 10.0 mg/kg/injection, schedule: Q01DX009 (ip), vehicle: saline): 112 % of control | T/C (dose: 14.0 mg/kg/injection, schedule: Q01DX009 (ip), vehicle: Klucel (hydroxypropylcellulose) (HPC)): 120 % of control | T/C (dose: 20.0 mg/kg/injection, schedule: Q01DX009 (ip), vehicle: Klucel (hydroxypropylcellulose) (HPC)): 110 % of control | T/C (dose: 20.0 mg/kg/injection, schedule: Q01DX009 (ip), vehicle: saline): 124 % of control | T/C (dose: 23.0 mg/kg/injection, schedule: Q01DX009 (ip), vehicle: Klucel (hydroxypropylcellulose) (HPC)): 123 % of control | T/C (dose: 23.0 mg/kg/injection, schedule: Q04DX003 (ip), vehicle: Klucel (hydroxypropylcellulose) (HPC)): 108 % of control | T/C (dose: 39.0 mg/kg/injection, schedule: Q01DX009 (ip), vehicle: Klucel (hydroxypropylcellulose) (HPC)): 94 % of control | T/C (dose: 39.0 mg/kg/injection, schedule: Q04DX003 (ip), vehicle: Klucel (hydroxypropylcellulose) (HPC)): 116 % of control | T/C (dose: 65.0 mg/kg/injection, schedule: Q01DX001 (ip), vehicle: Klucel (hydroxypropylcellulose) (HPC)): 104 % of control | T/C (dose: 108.0 mg/kg/injection, schedule: Q01DX001 (ip), vehicle: Klucel (hydroxypropylcellulose) (HPC)): 110 % of control | T/C (dose: 108.0 mg/kg/injection, schedule: Q04DX003 (ip), vehicle: Klucel (hydroxypropylcellulose) (HPC)): 96 % of control | T/C (dose: 180.0 mg/kg/injection, schedule: Q01DX001 (ip), vehicle: Klucel (hydroxypropylcellulose) (HPC)): 120 % of control | T/C (dose: 180.0 mg/kg/injection, schedule: Q04DX003 (ip), vehicle: Klucel (hydroxypropylcellulose) (HPC)): 96 % of control

Fc1ccc2[nH]c3c(c2c1)C[P+](Cc1cccc2ccccc12)(c1ccccc1)CC3 (stereo not given)
T/C (dose: 100.0 mg/kg/injection, schedule: Q04DX003 (ip), vehicle: saline): 98 % of control | T/C (dose: 200.0 mg/kg/injection, schedule: Q04DX003 (ip), vehicle: saline): 88 % of control
